# Results as given in ChEMBL document CHEMBL1201862, “PubChem BioAssay data set” (2004).
#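 96-well plates; 48 h exposure; 5 concentrations. Endpoints by linear interpolation between flanking doses. Not reached: highest tested concentration assigned. At the GI50, growth is halved.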 Calls of active or inactive are those of the source. No stated cut-off is given here; in the data, active = GI50 up to about 1.1 µM and inactive = higher.
# How the values were obtained:
# Experiment in all cases: growth of human tumour cells (NCI), 48 h
# SK-OV-3 = system: SK-OV-3
# NCI-H226 = system: NCI-H226
# COLO 205 = system: COLO 205
# UACC-257 = system: UACC-257
# OVCAR-4 = system: OVCAR-4
# SNB-75 = system: SNB-75
# MOLT-4 = system: MOLT-4
# T47D = system: T47D
# HCC 2998 = system: HCC 2998
# RPMI-8226 = system: RPMI-8226
# SK-MEL-2 = system: SK-MEL-2
# MDA-MB-231 = system: MDA-MB-231
# NCI-H23 = system: NCI-H23
# OVCAR-3 = system: OVCAR-3
# U-251 = system: U-251
# OVCAR-5 = system: OVCAR-5
# LOX IMVI = system: LOX IMVI
# K562 = system: K562
# MCF7 = system: MCF7
# SF-295 = system: SF-295
# CCRF-CEM = system: CCRF-CEM
# ACHN = system: ACHN
# EKVX = system: EKVX
# NCI/ADR-RES = system: NCI/ADR-RES
# NCI-H522 = system: NCI-H522
# SN12C = system: SN12C
# KM12 = system: KM12
# 786-0 = system: 786-0
# HCT-116 = system: HCT-116
# MDA-MB-435 = system: MDA-MB-435
# HOP-92 = system: HOP-92
# CAKI-1 = system: CAKI-1
# SK-MEL-5 = system: SK-MEL-5
# M14 = system: M14
# OVCAR-8 = system: OVCAR-8
# UO-31 = system: UO-31
# IGROV-1 = system: IGROV-1
# MDA-N = system: MDA-N
# HCT-15 = system: HCT-15
# PC-3 = system: PC-3
# SR = system: SR
# Malme-3M = system: Malme-3M
# A498 = system: A498
# SW-620 = system: SW-620
# SF-539 = system: SF-539
# TK-10 = system: TK-10
# UACC-62 = system: UACC-62
# A549 = system: A549
# SK-MEL-28 = system: SK-MEL-28
# HOP-62 = system: HOP-62
# BT-549 = system: BT-549
# DU-145 = system: DU-145
# Hs-578T = system: Hs-578T
# HL-60 = system: HL-60
# RXF 393 = system: RXF 393
# SF-268 = system: SF-268
# SNB-19 = system: SNB-19
# HT-29 = system: HT-29
# NCI-H460 = system: NCI-H460
compound,measurement,setting,value
COc1ccc(NCc2cccc3c(=O)c4ccc(Cl)cc4oc23)cc1,GI50,SK-OV-3,> 100 µM (inactive)
same,GI50,NCI-H226,> 100 µM (inactive)
same,GI50,COLO 205,> 100 µM (inactive)
same,GI50,UACC-257,> 100 µM (inactive)
same,GI50,OVCAR-4,> 100 µM (inactive)
same,GI50,SNB-75,> 100 µM (inactive)
same,GI50,MOLT-4,> 100 µM (inactive)
same,GI50,T47D,> 100 µM (inactive)
same,GI50,HCC 2998,> 100 µM (inactive)
same,GI50,RPMI-8226,> 100 µM (inactive)
same,GI50,SK-MEL-2,> 100 µM (inactive)
same,GI50,MDA-MB-231,> 100 µM (inactive)
same,GI50,NCI-H23,> 100 µM (inactive)
same,GI50,OVCAR-3,> 100 µM (inactive)
same,GI50,U-251,> 100 µM (inactive)
same,GI50,OVCAR-5,> 100 µM (inactive)
same,GI50,LOX IMVI,> 100 µM (inactive)
same,GI50,K562,> 100 µM (inactive)
same,GI50,MCF7,> 100 µM (inactive)
same,GI50,SF-295,> 100 µM (inactive)
same,GI50,CCRF-CEM,> 100 µM (inactive)
same,GI50,ACHN,> 100 µM (inactive)
same,GI50,EKVX,> 100 µM (inactive)
same,GI50,NCI/ADR-RES,> 100 µM (inactive)
same,GI50,NCI-H522,> 100 µM (inactive)
same,GI50,SN12C,> 100 µM (inactive)
same,GI50,KM12,> 100 µM (inactive)
same,GI50,786-0,> 100 µM (inactive)
same,GI50,HCT-116,> 100 µM (inactive)
same,GI50,MDA-MB-435,> 100 µM (inactive)
same,GI50,HOP-92,2.5 µM (inactive)
same,GI50,CAKI-1,> 100 µM (inactive)
same,GI50,SK-MEL-5,> 100 µM (inactive)
same,GI50,M14,> 100 µM (inactive)
same,GI50,OVCAR-8,> 100 µM (inactive)
same,GI50,UO-31,> 100 µM (inactive)
same,GI50,IGROV-1,> 100 µM (inactive)
same,GI50,MDA-N,> 100 µM (inactive)
same,GI50,HCT-15,> 100 µM
same,GI50,PC-3,> 100 µM (inactive)
same,GI50,SR,> 100 µM (inactive)
same,GI50,Malme-3M,> 100 µM (inactive)
same,GI50,A498,> 100 µM (inactive)
same,GI50,SW-620,> 100 µM (inactive)
same,GI50,SF-539,> 100 µM (inactive)
same,GI50,TK-10,> 100 µM (inactive)
same,GI50,UACC-62,> 100 µM (inactive)
same,GI50,A549,> 100 µM (inactive)
same,GI50,SK-MEL-28,> 100 µM (inactive)
same,GI50,HOP-62,> 100 µM (inactive)
same,GI50,BT-549,> 100 µM (inactive)
COc1ccccc1C(=O)OCC1CCCN2CCCCC12 (stereo not given),GI50,SK-OV-3,> 100 µM (inactive)
same,GI50,NCI-H226,54.8 µM (inactive)
same,GI50,COLO 205,21.1 µM (inactive)
same,GI50,UACC-257,31 µM (inactive)
same,GI50,OVCAR-4,83 µM (inactive)
same,GI50,SNB-75,20.6 µM (inactive)
same,GI50,MOLT-4,38.5 µM (inactive)
same,GI50,T47D,16.1 µM (inactive)
same,GI50,DU-145,> 100 µM (inactive)
same,GI50,HCC 2998,17.8 µM (inactive)
same,GI50,RPMI-8226,42.2 µM (inactive)
same,GI50,SK-MEL-2,54.3 µM (inactive)
same,GI50,MDA-MB-231,24.8 µM (inactive)
same,GI50,NCI-H23,> 100 µM (inactive)
same,GI50,U-251,26 µM (inactive)
same,GI50,LOX IMVI,17.1 µM (inactive)
same,GI50,K562,33.9 µM (inactive)
same,GI50,MCF7,42.4 µM (inactive)
same,GI50,SF-295,26.3 µM (inactive)
same,GI50,CCRF-CEM,18.6 µM (inactive)
same,GI50,ACHN,> 100 µM (inactive)
same,GI50,EKVX,81.7 µM (inactive)
same,GI50,Hs-578T,59.7 µM (inactive)
same,GI50,NCI/ADR-RES,37.3 µM (inactive)
same,GI50,SN12C,29.7 µM (inactive)
same,GI50,KM12,18.2 µM (inactive)
same,GI50,786-0,> 100 µM (inactive)
same,GI50,HCT-116,40.3 µM (inactive)
same,GI50,MDA-MB-435,64.3 µM (inactive)
same,GI50,HOP-92,> 100 µM (inactive)
same,GI50,CAKI-1,> 100 µM (inactive)
same,GI50,HL-60,21.1 µM (inactive)
same,GI50,SK-MEL-5,34.4 µM (inactive)
same,GI50,OVCAR-8,21 µM (inactive)
same,GI50,UO-31,> 100 µM (inactive)
same,GI50,HCT-15,36.6 µM
same,GI50,PC-3,85.5 µM (inactive)
same,GI50,Malme-3M,33.6 µM (inactive)
same,GI50,A498,> 100 µM (inactive)
same,GI50,RXF 393,22.2 µM (inactive)
same,GI50,SF-268,36.5 µM (inactive)
same,GI50,SW-620,> 100 µM (inactive)
same,GI50,SF-539,> 100 µM (inactive)
same,GI50,TK-10,> 100 µM (inactive)
same,GI50,UACC-62,31.7 µM (inactive)
same,GI50,A549,25.8 µM (inactive)
same,GI50,SK-MEL-28,26.4 µM (inactive)
same,GI50,SNB-19,35.9 µM (inactive)
same,GI50,BT-549,17.7 µM (inactive)
same,GI50,HT-29,16.6 µM (inactive)
same,GI50,NCI-H460,21.6 µM (inactive)
O=C(Nc1ccc(F)cc1)c1cc2ccc(O)cc2o/c1=N\c1cccc(F)c1,GI50,SK-OV-3,51.6 µM (inactive)
same,GI50,COLO 205,> 100 µM (inactive)
same,GI50,UACC-257,33.5 µM (inactive)
same,GI50,OVCAR-4,26 µM (inactive)
same,GI50,MOLT-4,27.9 µM (inactive)
same,GI50,T47D,31.5 µM (inactive)
same,GI50,DU-145,28.9 µM (inactive)
same,GI50,HCC 2998,55.6 µM (inactive)
same,GI50,RPMI-8226,14.8 µM (inactive)
same,GI50,SK-MEL-2,42.2 µM (inactive)
same,GI50,NCI-H23,19.9 µM (inactive)
same,GI50,OVCAR-3,38.3 µM (inactive)
same,GI50,U-251,28.7 µM (inactive)
same,GI50,OVCAR-5,> 100 µM (inactive)
same,GI50,LOX IMVI,25.4 µM (inactive)
same,GI50,K562,22 µM (inactive)
same,GI50,MCF7,32.8 µM (inactive)
same,GI50,SF-295,43.9 µM (inactive)
same,GI50,CCRF-CEM,15.2 µM (inactive)
same,GI50,ACHN,32.8 µM (inactive)
same,GI50,EKVX,22.9 µM (inactive)
same,GI50,NCI/ADR-RES,28.2 µM (inactive)
same,GI50,NCI-H522,16.4 µM (inactive)
same,GI50,SN12C,38.9 µM (inactive)
same,GI50,KM12,29.9 µM (inactive)
same,GI50,786-0,39.9 µM (inactive)
same,GI50,HCT-116,35.4 µM (inactive)
same,GI50,MDA-MB-435,31.8 µM (inactive)
same,GI50,CAKI-1,32.7 µM (inactive)
same,GI50,HL-60,27.3 µM (inactive)
same,GI50,SK-MEL-5,16.1 µM (inactive)
same,GI50,OVCAR-8,18.4 µM (inactive)
same,GI50,IGROV-1,18.9 µM (inactive)
same,GI50,MDA-N,38.8 µM (inactive)
same,GI50,HCT-15,27.5 µM
same,GI50,PC-3,33 µM (inactive)
same,GI50,SR,33.3 µM (inactive)
same,GI50,Malme-3M,20.2 µM (inactive)
same,GI50,A498,43 µM (inactive)
same,GI50,SF-268,43.1 µM (inactive)
same,GI50,SW-620,41.5 µM (inactive)
same,GI50,SF-539,52.7 µM (inactive)
same,GI50,UACC-62,42.8 µM (inactive)
same,GI50,SK-MEL-28,45.7 µM (inactive)
same,GI50,HOP-62,42.5 µM (inactive)
same,GI50,BT-549,30.6 µM (inactive)
same,GI50,HT-29,> 100 µM (inactive)
same,GI50,NCI-H460,31.7 µM (inactive)
